Measurements from a melting point compilation (Tetko et al.; mined from patent text by program, amines drawn as free bases though some values may be those of a salt).

Row | Structure (SMILES) | melting point [°C]
1 | Cc1nc(Sc2ccc(N)cc2)nc(C)c1Cl | 160 to 161
2 | CN(Cc1ccc(NC(=O)C2=Cc3cc(-c4ccc(Cl)cc4)ccc3S(=O)(=O)CC2)cc1)C1CCOCC1 | 247 to 250
3 | Cc1cc(N2CCNC(=O)N2)cc(Cl)c1SCc1ccc(Cl)cc1 | 165 to 167
4 | CCCN1CC(c2ccc(S(C)(=O)=O)cc2)=C(c2cccc(C)c2)C1=O | 120 to 122
5 | O=C(O)COc1ccc2c(-c3ccccc3F)noc2c1I | 178 to 180
6 | CCOC(=O)CCC1(CCC(=O)OCC)CCC(=O)N1 | 44 to 46
7 | CC(C)CN(C)C1=NS(=O)(=O)c2cccc(Cl)c21 | 160 to 162
8 | CCCCCCCCCCOC(=O)OC(C)OC1=C(C(=O)Nc2ccccn2)N(C)S(=O)(=O)c2ccccc21 (stereo unspecified) | 84 to 86
9 | O=C(Nc1cc(Cl)cc(Cl)c1O)Nc1cccc(C(F)(F)F)c1Cl | 161 to 163
10 | COc1ccc(-c2cc(C)c(=O)[nH]n2)cc1 | 265 to 267
11 | CCOC(=O)C1=C(C)NC(COCCN2C(=O)c3ccccc3C2=O)=C(C(=O)OCC)C1c1ccccc1Cl (stereo unspecified) | 142 to 144
12 | N#CN1CCC2(CC1)Oc1ccccc1C2n1cccc1 (stereo unspecified) | 165 to 168
13 | Cc1cc(-c2ccc(Cl)cc2)nc(-c2cccc(-c3ccc(S(N)(=O)=O)s3)c2)n1 | 227
14 | CCCCc1nc2ccc(O)cc2c(=O)n1Cc1ccc(-c2ccccc2-c2nnn[nH]2)cc1 | 212 to 214
15 | COc1ccc(C#N)nc1C | 114 to 116
16 | CC(=O)Nc1c(C)cccc1CCC(=O)O | 110
17 | COC(=O)C1C(c2ccc(F)c(C)c2)=CC2(CC1(C)C)SCCCS2 (stereo unspecified) | 100 to 101
18 | COc1ccc(-c2ncccc2OC2SCC(O)C(O)C2O)cc1 (stereo unspecified) | 137
19 | COC(=O)c1cccc(Cl)c1NC(C)=O | 135 to 136
20 | COc1cc2c(cc1/C=C/CCO)oc1cc(-c3ccccc3Cl)c3c(c12)C(=O)NC3=O | 247 to 250
21 | COc1cccc2c(CN3CC=C(/C=C/c4ccccc4)CC3)coc12 | 152 to 153
22 | CCOC(=O)Cc1c(Cl)nc(-c2ccccc2)n1Cc1ccccc1 | 72 to 73
23 | CC(C)(C)C(=O)Nc1cc(Cl)ccc1Cl | 74 to 76
24 | Cc1oc(-c2ccco2)nc1COc1ccc(CO)cc1Br | 141 to 142
25 | Cc1nc(Nc2c([N+](=O)[O-])cc([N+](=O)[O-])cc2C(F)(F)F)c(Cl)c(C)c1Cl | 131 to 133
26 | Cc1ccc(-c2nc(N)ncc2-c2ccc(=O)[nH]n2)cc1 | 249

Row | Structure (SMILES) | melting point [°C]
27 | N#Cc1ccc(-c2cc(N(Cc3ccc(O)cc3)n3cnnc3)ccc2C#N)cc1 | 221 to 223
28 | O=[N+]([O-])c1cc(Cl)c(Oc2ccccc2)cc1Oc1ccccc1 | 95
29 | CCOc1ccccc1-c1ncc(-c2nnn[nH]2)c(=O)[nH]1 | 289 to 290
30 | O=C1NC2(CCCC2)CCCC1(Cl)Cl | 114 to 120
31 | CCOC(=O)CCN(C)Cc1ccc(NC(=O)C2=Cc3cc(-c4ccc(N5CCOCC5)cc4)ccc3S(=O)(=O)CC2)cc1 | 209 to 211
32 | CC(C)OCc1cc2ccccc2oc1=Nc1ccccc1 | 107 to 108
33 | CN1CC(=O)N2c3ccccc3Cn3c(cc4ccccc43)C2C1=O (stereo unspecified) | 188 to 189
34 | CS(=O)(=O)c1ccc(-c2cn[nH]c(=O)c2-c2ccc(F)cc2)cc1 | 255 to 256
35 | O=C(c1ccccc1)c1ccc(NC(=O)N2CCC3(CC2)OC(=O)c2ccccc23)cc1 | 161 to 163
36 | CCN(CC)C(=O)c1ccc2cc(C(=O)O)ccc2c1 | 122 to 124
37 | Cn1c(C(N)=O)nc([N+](=O)[O-])c1C#N | 265 to 267
38 | CCOC(=O)c1sc(C2=C(C)NC(C)=C(C(=O)OC)C2c2ccccc2[N+](=O)[O-])nc1C (stereo unspecified) | 191 to 192
39 | C#Cc1ccc(C(O)(Cn2cncn2)C(C)(C)C)cc1 (stereo unspecified) | 101
40 | CC1(C)Nc2c(Cl)cccc2NC1=O | 153 to 156
41 | CCC1c2cc(OC)c(OC)cc2C(C=Cc2ccc(N)cc2)=NN(C(C)=O)C1C (stereo unspecified) | 104 to 106
42 | CC(=O)OCC(=O)C1(OC(C)=O)C(C)CC2C3CC(C)C4=CC(=O)CCC4(C)C3(F)C(O)CC21C (stereo unspecified) | 194 to 195
43 | CCc1cc(NC(=O)C(CSC(C)=O)Cc2ccccc2)cc(C(=O)O)c1 (stereo unspecified) | 175 to 177
44 | C[Si](C)(C)ON1C(=O)CCC1=O | 55 to 57
45 | O=C1CCC(=O)N1Nc1c(Cl)cc(Cl)cc1Cl | 114 to 115
46 | CC(C)c1cc(C(C)C)c(SSc2c(C(C)C)cc(C(C)C)cc2C(C)C)c(C(C)C)c1 | 93 to 94
47 | CS(=O)(=O)Nc1cc([C@@H](O)CNC2CCN(c3ccc(NC(=O)CCC4CCCC4)cc3)CC2)ccc1O | 82 to 90
48 | CCN1c2ncc(CCl)cc2C(=O)N(C)c2ccc(Cl)nc21 | 133 to 134
49 | CC(=O)N(C)c1cc2c(nc(C)n2C)c(O)c1CCC(=O)c1ccccc1 | 249 to 251
50 | Brc1cn2c(Br)cnc2c(Br)n1 | 161
51 | CCOC(=O)C1=C(N)NC2=C(C(=O)CCC2)C1c1ccccc1C#N (stereo unspecified) | 165
52 | CCCC1C(=O)N(S(=O)(=O)c2ccc3ccccc3c2)C2CCN(C(=O)CN3CCCCC3)C12 (stereo unspecified) | 161 to 163

Row | Structure (SMILES) | melting point [°C]
53 | O=c1cc(C(F)(F)F)ccn1-c1c(Cl)cc(CF)cc1Cl | 121 to 122
54 | Cc1ccc(O)c(C(=O)Nc2cc(Cl)cc(Cl)c2)c1 | 216 to 217
55 | Clc1nc(Cl)nc(Oc2ccccc2)n1 | 113 to 114
56 | COc1ccc(CNn2nnc3c(Cl)ncnc32)cc1 | 110 to 112
57 | CCC(CC)(CC(=O)Nc1cccc(OCc2ccc3ccc(Cl)cc3n2)c1)C(=O)O | 87.5 to 88.5
58 | CCOC(=O)c1cc(S(=O)C(F)(F)C(F)F)c(-c2ccc(Cl)cc2)[nH]1 (stereo unspecified) | 138 to 140
59 | CC(C)n1nc(-c2c(-c3ccccc3)nc(N)nc2-n2cnc3ccccc32)ccc1=O | 242 to 244
60 | COc1ccc(-c2ccccc2)cc1NC(=S)c1ncc[nH]1 | 223 to 226
61 | CN(C(=O)c1cc(C(F)(F)F)cc(C(F)(F)F)c1)C(CCCC(=O)O)Cc1c[nH]c2ccccc12 (stereo unspecified) | 152 to 157
62 | N#CC1=CC(CF)(CF)Oc2ccc([N+](=O)[O-])cc21 | 136 to 137
63 | O=C(/C=C/c1cccnc1)N1CCN(C(=O)c2cc(C(F)(F)F)cc(C(F)(F)F)c2)[C@H](Cc2c[nH]c3ccccc23)C1 | 86.5 to 89.5
64 | COC(=O)C(Cc1ccc(OC)c(C(=O)NCc2ccc(C(F)(F)F)cc2)c1)SC (stereo unspecified) | 127 to 128
65 | CCCCCCCCOC(=O)c1cnc(C(=O)O)cn1 | 142 to 143
66 | COC(=O)C(C)(C)Cc1ccc2cc(CC(C)(C)C(=O)OC)ccc2c1 | 108 to 110
67 | O=C(NCc1ccccc1)c1ccnc(N2CCN(Cc3ccncc3)C2=O)c1 | 154 to 156
68 | CCCCCCCCCCOc1cc(O)cc(OCCCCCCCCCC)c1 | 48 to 50
69 | CCCCCCOc1cccc2c(OCCCCCC)cccc12 | 92 to 93
70 | COc1ccc(SCn2cc(Cl)cnc2=O)cc1 | 140
71 | Nc1nc(=O)n(COCc2ccccc2)cc1F | 213 to 217
72 | CC(C)c1ccc(C(C)C)n1NC1=NCCN1 | 230 to 232
73 | CC(C)(CCCCCCNS(=O)(=O)c1ccc(Cl)cc1)C(=O)O | 95 to 96
74 | CCN(CC)C(=O)COc1ccc(S(=O)(=O)c2ccc(O)cc2)cc1 | 223 to 226
75 | Cc1ccc2[nH]c(=O)n(C(C)(C)C(=O)O)c(=O)c2c1 | 268 to 271
76 | CC(C)(C)OC(=O)N1[C@@H](C(=O)O)CC[C@H]1c1ccccc1 (racemic) | 113 to 117
77 | CC(C)(C)OC(=O)CN1CC(c2ccc(F)cc2)CCC(N=[N+]=[N-])C1=O (stereo unspecified) | 136 to 137
78 | Cc1cc(-c2cccc(Cl)c2)nnc1Cl | 138 to 140

Row | Structure (SMILES) | melting point [°C]
79 | COc1ccc(-c2nc(C(OC)(C(F)(F)F)C(F)(F)F)[nH]c2-c2ccc(OC)cc2)cc1 | 129 to 131
80 | Nc1ccc([N+](=O)[O-])cc1C(=O)c1ccccc1Cl | 138 to 139
81 | CCOC(=O)COc1ccc(C(=O)CN2CCN(c3ccncc3)CC2=O)cc1 | 163 to 165
82 | Cc1nc(CCN2CCOCC2)c2c(n1)N(CC#N)C(=O)C(N)O2 (stereo unspecified) | 126 to 128
83 | O=c1[nH]c2sccc2c(=O)n1CCN1CCN(c2ccccc2)CC1 | 228 to 230
84 | OCCNC(=S)NC1CCc2ccccc2C1 (stereo unspecified) | 89 to 91
85 | N#Cc1cnn2c1N(C(=O)CCl)CC=C2c1cc(Cl)ccc1Cl | 235 to 236
86 | Cc1[nH]c(=O)ccc1C#N | > 300
87 | FC(F)(F)Oc1ccc2cnn(SC(Cl)(Cl)Cl)c2c1 | 45
88 | CC(=O)CC(=O)NC1CCCCC1 | 66 to 69
89 | OC1(c2cccc3[nH]ccc23)CCN(CCOc2ccccc2)CC1 | 168
90 | CCCCNC(=O)N(C)c1cccc(-c2ccc(C=C(OCC)C(=O)O)cc2)c1 | 126
91 | O=C(O)c1ccc(OC(=O)c2cccc(C(=O)Oc3ccc(C(=O)O)cc3)c2)cc1 | 290 to 300
92 | O=C(O)COc1ccc(OC2CCN(c3ccncc3)CC2)cc1 | 288 to 291
93 | CSc1cc(C(C)(C)C)c(O)c(C(=O)O)c1C | 138 to 139
94 | Cn1cncc1C(O)(c1ccc(Cl)cc1)c1ccc2c(c1)C(c1cccc(Cl)c1)=NCc1nnnn1-2 (stereo unspecified) | 240
95 | O=[N+]([O-])c1cc2ccccc2nc1Nc1ccc(O)cc1 | 190
96 | CON=C(C(=O)O)c1cccc(NC(=O)C(F)(F)F)n1 | 194 to 195
97 | O=[N+]([O-])c1ccc2c(c1)C=C(N1CCN(Cc3ccc4c(c3)OCO4)CC1)c1ccccc1S2 | 188 to 190
98 | CC1(CNCc2cc3cc(NC(=O)c4ccc(OCC5CC5)cc4)ccc3[nH]2)COC1 | 166 to 167
99 | COc1ccc2c(c1)c(N1CCN(C)CC1)nn2S(=O)(=O)c1ccccc1 | 165 to 167
100 | NC(=O)COC(=O)NCCC[C@H]1OC[C@H](c2ccc(Cl)c3ccccc32)CO1 | 176 to 178
101 | Cc1cc(OCCN2CCc3ccc(NS(C)(=O)=O)cc3CC2)ccc1NS(C)(=O)=O | 173 to 174
